# According to patent US6660734B1, “Oxazinones having antibacterial activity” (Simon Fraser University, priority 1997, dated 2003):
# Legend:
# Micrococcus luteus = experiment: Filter disc bioassay on agar plates seeded with Micrococcus luteus; type: cell-based; conditions: for ZONE SIZE: M. luteus, overnight 37° C.
# Description: Samples were applied to filter discs in the amounts indicated. The discs were applied to agar plates seeded with Micrococcus luteus, and the plates were incubated overnight at 37° C. The results are illustrated in FIG. 5 and summarized in the following Table 1: Samples were assayed as in Example 3, with the results summarized in the following Table 2: […]
# tuberculosis bacilli = conditions: according to Khomutov; cited from earlier work
# [1] = test system: glutamate-aspartate transaminase; conditions: according to Khomutov; cited from earlier work
structure (smiles),measurement,setting,value
"O=C(O)CN1OC=C(O)CC1=O [Example 1, 2-Carboxymethyl-5-hydroxy-1,2-oxazin-3-one]",antibacterial activity,"Micrococcus luteus; in words, from Tables 1 and 2",weak antibacterial activity
same,"antibacterial activity, times less than that of penicillin","Micrococcus luteus; relative to penicillin, from Tables 1 and 2",at least 1000 times
"NC1CCONC1=O (racemic) [cyclocanaline, 4-amino-tetrahydro-1,2-oxazin-3-one]",activity against tuberculosis bacilli,tuberculosis bacilli,exhibits activity against tuberculosis bacilli
same,inhibition of glutamate-aspartate transaminase,[1],known to lnhibit glutamate-aspartate transaminase
CC1(C)S[C@@H]2[C@H](NC(=O)Cc3ccccc3)C(=O)N2[C@H]1C(=O)O [penicillin G],ZONE SIZE,"Micrococcus luteus; Table 1, 0.1 micrograms on filter disc",1.6 cm
"CC(CN1OC=C(O)CC1=O)C(=O)O (stereo not shown) [Example 2, 2-[2-Carboxypropyl]-5-hydroxy-1,2-oxazin-3-one]","activity, times the activity of the carboxymethyl product","Micrococcus luteus; relative to product of Example 1, from Tables 1 and 2",approximately 50 times
CC1=C(C(=O)O)N2C(=O)[C@@H](NC(=O)Cc3ccccc3)[C@H]2SC1 [desacetoxycephalosporin G],ZONE SIZE,"Micrococcus luteus; Table 2, 2.5 micrograms on filter disc",2.5 cm
